The Tmax is the time at which the peak concentration occurs. In general, Cmax refers to the highest concentration seen after dosing.

The nature of this data set: Pharmacokinetic study in healthy adults of single vs. multiple oral doses of colchicine tablets (Example 1).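 On all read-outs here: Single-dose and multiple-dose periods given to the same subjects, with a 14-day washout between the two periods.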 The class given is in vivo, human. As to conditions: for Vd/F / half-life / Tmax / AUC(0-inf) / AUC(0-t) / AUC / Cmax: human, plasma, 0.6 mg; for Vd/F: Vd = CL/Ke, calculated from mean values, read-out: Vd/F, Mean (% CV).
The mark [1] stands for this setting: multiple (b.i.d.) oral doses colchicine 0.6 mg for 10 days, Day 25, healthy adults N=13, plasma, median.

Where two headings read alike, the source gives them in different places.

Protocol: Subjects received a light breakfast served 60 minutes following dose administration in the morning and the evening dose was administered 90 minutes after an evening meal on Days 15 through 24 only. […] Study periods were separated by a 14-day washout. Following the single dose and the last dose of the multiple dose regimen (beginning on the mornings of Day 1 and Day 25, respectively), blood samples were collected (6 mL each) from each subject within 1 hour prior to dosing and after dose administration at study hours 0.5, 1, 1.5, 2, 3, 4, 6, 8, 10, 12, and 24 (while confined) and 36, 48, 72, and 96 (on an outpatient basis).
All subjects completed both dosing periods according to protocol.
In tables, the parameter CL/F denotes the apparent total body clearance after administration, calculated as Total Dose/Total AUC0-tau; and Vd/F denotes the apparent total volume of distribution after administration, calculated as Total Dose/(Total AUC∞×Kel).
Pharmacokinetic parameters referred to herein describe the in vivo characteristics of drug (or a metabolite or a surrogate marker for the drug) over time. These include plasma concentration (C), as well as Cmax, Cn, C24, Tmax, and AUC. “Cmax” is the measured plasma concentration of the active agent at the point of maximum, or peak, concentration. “Cmin” is the measured plasma concentration of the active agent at the point of minimum concentration. “Cn” is the measured plasma concentration of the active agent at about n hours after administration. […] The term “Tmax” refers to the time from drug administration until Cmax is reached. “AUC” is the area under the curve of a graph of the measured plasma concentration of an active agent vs. time, measured from one time point to another time point. […] Time t can be the last time point with measurable plasma concentration for an individual formulation. The AUC0-∞, AUC∞ or AUC0-inf is the calculated area under the curve of plasma concentration versus time from time 0 to time infinity.

Consider `COc1cc2c(c(OC)c1O)-c1ccc(OC)c(=O)cc1[C@@H](NC(C)=O)CC2` [2-O-demethylcolchicine], for which the metabolite plasma concentration (after colchicine 0.6 mg single and multiple doses, LOQ 0.2 ng/mL, 13 subjects) is listed as < 0.2 ng/mL.
Take `COc1cc2c(c(OC)c1OC)-c1ccc(OC)c(=O)cc1[C@@H](NC(C)=O)CC2` [Colchicine, (−)-N-[(7S,12aS)-1,2,3,10-tetramethoxy-9-oxo-5,6,7,9-tetrahydrobenzo[a]heptalen-7-yl]-acetamide]: the “attainment of steady state (trough plasma concentrations)” value (0.6 mg b.i.d., most subjects) is recorded as “by approximately the eighth day of dosing”. In addition, the elimination half-life result (calculated following a single oral dose, stated not to be an accurate estimate) was “approximately 5 hours”. Further, the secondary colchicine peak result (following a single dose or upon multiple dosing, individual subject data) was “no subject experienced a secondary colchicine peak”. Besides, the “apparent volume of distribution” value (healthy adults, oral, single dose) came out at 540 L. In addition, the Vd/F reads like this: (oral, colchicine 0.6 mg b.i.d. × 10 days, Day 25) 1150 L; (oral, colchicine 0.6-mg single dose, Day 1, N=13) 341 L. Further, the half-life was 26.6 h (oral, repeated dosing 0.6 mg b.i.d., read-out: terminal elimination half life (converted)); 26.6 h (po, multiple (b.i.d.) oral doses colchicine 0.6 mg for 10 days, Day 25, healthy adults N=13, mean, read-out: T1/2, MEAN (converted)); 26.5 h (po, multiple (b.i.d.) oral doses colchicine 0.6 mg for 10 days, Day 25, healthy adults N=13, median, read-out: T1/2, MEDIAN (converted)); 4.95 h (po, single oral dose colchicine 0.6 mg, healthy adults N=13, mean, read-out: T1/2, MEAN (converted)); 3.48 h (po, single oral dose colchicine 0.6 mg, healthy adults N=13, median, read-out: T1/2, MEDIAN (converted)). Also, the Tmax reads like this: (po, multiple (b.i.d.) oral doses colchicine 0.6 mg for 10 days, Day 25, healthy adults N=13, mean, read-out: Tmax, MEAN) 1.31 h; (po, multiple (b.i.d.) oral doses colchicine 0.6 mg for 10 days, Day 25, healthy adults N=13, median, read-out: Tmax, MEDIAN) 1 h; (po, single oral dose colchicine 0.6 mg, healthy adults N=13, median, read-out: Tmax, MEDIAN) 1.5 h. Further, the AUC(0-inf) reads like this: (po, multiple (b.i.d.) oral doses colchicine 0.6 mg for 10 days, Day 25, healthy adults N=13, plasma, mean, read-out: AUC0-inf, MEAN) 54.2 ng·h/mL; (po, multiple (b.i.d.) oral doses colchicine 0.6 mg for 10 days, Day 25, healthy adults N=13, plasma, median, read-out: AUC0-inf, MEDIAN) 54.1 ng·h/mL; (po, single oral dose colchicine 0.6 mg, healthy adults N=13, plasma, mean, read-out: AUC0-inf, MEAN) 12.3 ng·h/mL; (po, single oral dose colchicine 0.6 mg, healthy adults N=13, plasma, median, read-out: AUC0-inf, MEDIAN) 11.5 ng·h/mL. Further, the AUC(0-t) was found to be 43.6 ng·h/mL (po, multiple (b.i.d.) oral doses colchicine 0.6 mg for 10 days, Day 25, healthy adults N=13, plasma, mean, read-out: AUC0-t, MEAN); 41.9 ng·h/mL (po, multiple (b.i.d.) oral doses colchicine 0.6 mg for 10 days, Day 25, healthy adults N=13, plasma, median, read-out: AUC0-t, MEDIAN); 10.5 ng·h/mL (po, single oral dose colchicine 0.6 mg, healthy adults N=13, plasma, mean, read-out: AUC0-t, MEAN); 10.6 ng·h/mL (po, single oral dose colchicine 0.6 mg, healthy adults N=13, plasma, median, read-out: AUC0-t, MEDIAN). Besides, the AUC is 20.4 ng·h/mL (po, multiple (b.i.d.) oral doses colchicine 0.6 mg for 10 days, Day 25, healthy adults N=13, plasma, mean, read-out: AUC0-τ, MEAN) and 20.4 ng·h/mL (po, multiple (b.i.d.) oral doses colchicine 0.6 mg for 10 days, Day 25, healthy adults N=13, plasma, median, read-out: AUC0-τ, MEDIAN). For the same compound, the Cmax (po, multiple (b.i.d.) oral doses colchicine 0.6 mg for 10 days, Day 25, healthy adults N=13, plasma, mean, read-out: Cmax, MEAN) was 3.55 ng/mL; the peak concentration (Cmax) (po, multiple (b.i.d.) oral doses colchicine 0.6 mg for 10 days, Day 25, healthy adults N=13, plasma, median, read-out: Cmax, MEDIAN) stood at 3.73 ng/mL; the Cmax (po, single oral dose colchicine 0.6 mg, healthy adults N=13, plasma, mean, read-out: Cmax, MEAN) was determined as 2.45 ng/mL; the peak concentration (Cmax) (po, single oral dose colchicine 0.6 mg, healthy adults N=13, plasma, median, read-out: Cmax, MEDIAN) was 2.48 ng/mL. Besides, the “Kel, MEAN” value came out at 0.0267 h⁻¹ (multiple (b.i.d.) oral doses colchicine 0.6 mg for 10 days, Day 25, healthy adults N=13, mean) and 0.1829 h⁻¹ (single oral dose colchicine 0.6 mg, healthy adults N=13, mean). Besides, the “Kel, MEDIAN” value is, setting by setting: (multiple (b.i.d.) oral doses colchicine 0.6 mg for 10 days, Day 25, healthy adults N=13, median) 0.0261 h⁻¹; (single oral dose colchicine 0.6 mg, healthy adults N=13, median) 0.1992 h⁻¹. Under “multiple (b.i.d.) oral doses colchicine 0.6 mg for 10 days, Day 25, healthy adults N=13, plasma, mean”, the “Cave, MEAN” value is 1.69722 ng/mL. The “Cave, MEDIAN” value under setting [1] was found to be 1.70192 ng/mL. Under setting [1], the “Cmin, MEDIAN” value worked out at 0.9035 ng/mL. Where the note is “observed on Day 25, 0.6 mg b.i.d. steady state regimen”, the “mean Cmin concentration” value was 0.907 ng/mL. Also, under “single dose 0.6 mg, 24 hours post-dose”, the “plasma concentrations quantifiable after a single dose” value was “no longer quantifiable 24 hours post-dose in all but 1 subject”. Besides, under “steady state, Day 23 and Day 24”, the “Cmin prior to the morning dose higher than Cmin prior to the evening dose” value is “approximately 12%”.

(Values after US20110046227A1, “METHODS FOR CONCOMITANT ADMINISTRATION OF […] A SECOND ACTIVE AGENT” (MUTUAL PHARMACEUTICAL COMPANY, INC., priority 2009, published 2011).)
